Assay results as given in US8815934B2, “2-Phenyl-1-[4-(2-Aminoethoxy)-Benzyl]-Indole and estrogen formulations” (Wyeth LLC, priority 1998, dated 2014).

What was measured:
estrogen receptor = estrogen receptor (Homo sapiens (Human), UniProt P03372); test: 2×VIT ERE infection luciferase assay; assay type: cell-based; details: for Infection Luciferase Activity, 1 uM + 17β estradiol: 1 uM compound + 1 nM 17β-estradiol (estrogen antagonism); for Infection Luciferase Activity, 1 uM: 1 uM compound alone, percentage of activity as compared to 17β-estradiol
Sequence of estrogen receptor (P03372 whole entry): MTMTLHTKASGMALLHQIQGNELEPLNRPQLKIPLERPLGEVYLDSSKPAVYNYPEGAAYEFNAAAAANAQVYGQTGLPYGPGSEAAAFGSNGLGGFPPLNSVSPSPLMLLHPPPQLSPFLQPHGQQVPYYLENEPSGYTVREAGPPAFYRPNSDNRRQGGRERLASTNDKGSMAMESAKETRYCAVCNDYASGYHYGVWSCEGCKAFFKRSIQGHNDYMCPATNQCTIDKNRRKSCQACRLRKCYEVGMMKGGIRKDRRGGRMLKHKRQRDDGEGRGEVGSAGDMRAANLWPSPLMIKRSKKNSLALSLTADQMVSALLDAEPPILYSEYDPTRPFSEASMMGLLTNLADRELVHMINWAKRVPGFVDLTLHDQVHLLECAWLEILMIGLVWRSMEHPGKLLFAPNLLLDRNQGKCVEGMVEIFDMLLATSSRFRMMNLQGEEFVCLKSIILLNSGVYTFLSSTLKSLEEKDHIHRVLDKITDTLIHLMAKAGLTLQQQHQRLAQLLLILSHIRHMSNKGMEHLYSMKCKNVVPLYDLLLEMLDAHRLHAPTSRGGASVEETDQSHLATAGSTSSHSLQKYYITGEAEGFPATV
Procedure: Chinese Hamster Ovary cells (CHO) which had been stably transfected with the human estrogen receptor were maintained in DMEM+10% fetal bovine serum (FBS). 48 h prior to treatment the growth medium was replaced with DMEM lacking phenol red+10% dextran coated charcoal stripped FBS (treatment medium). Cells were plated at a density of 5000 cells/well in 96-well plates containing 200 μL of medium/well.
Reporter DNA (Promega plasmid pGL2 containing two tandem copies of the vitellogenin ERE in front of the minimal thymidine kinase promoter driving the luciferase gene) was combined with the B-galactosidase expression plasmid pCH110 (Pharmacia) and carrier DNA (pTZ18U) in the following ratio:
20 uL of this mixture was added to each well of cells and remained on the cells for 16 h. […] Each treatment condition was performed on 8 wells (n=8) which were incubated for 24 h prior to the luciferase assay.
After removing the PBS, 25 uL of Promega lysis buffer was added to each well and allowed to stand at room temperature for 15 min, followed by 15 min at −80° C. and 15 min at 37° C. 20 uL of lysate was transferred to an opaque 96 well plate for luciferase activity evaluation and the remaining lysate (5 uL) was used for the B-galactosidase activity evaluation (normalize transfection). The luciferan substrate (Promega) was added in 100 uL aliquots to each well automatically by the luminometer and the light produced (relative light units) was read 10 seconds after addition.
To the remaining 5 uL of lysate 45 uL of PBS was added. Then 50 uL of Promega B-galactosidase 2× assay buffer was added, mixed well and incubated at 37° C. for 1 hour. A plate containing a standard curve (0.1 to 1.5 milliunits in triplicate) was set up for each experimental run. The plates were analyzed on a Molecular Devices spectrophotometric plate reader at 410 nm. The optical densities for the unknown were converted to milliunits of activity by mathematical extrapolation from the standard curve.
The luciferase data was generated as relative light units (RLUs) accumulated during a 10 second measurement and automatically transferred to a JMP (SAS Inc) file where background RLUs were subtracted. The B-galactosidase values were automatically imported into the file and these values were divided into the RLUs to normalize the data. The mean and standard deviations were determined from a n=8 for each treatment. […] These techniques are described by Tzukerman, M. T., Esty, A., Santiso-Mere, D., Danielian, P., Parker, M. G., Stein, R. B., Pike, J. W. and McDonnel, D. P. (1994). Human estrogen receptor transactivational capacity was determined by both cellular and promoter context and mediated by two functionally distinct intramolecular regions (see Molecular Endocrinology, 8:21-30).

[1] = tested on: Immature Sprague-Dawley rats; test: Rat uterotrophic/antiuterotrophic bioassay; assay type: in vivo; details: immature female rats, daily ip; for Uterine wt mg 100 uG cmpd + 1uG 17β-estradiol: 100 uG compound + 1 uG 17β-estradiol; for Uterine wt mg 100 uG cmpd: 100 uG compound, wet weight
Procedure: The estrogenic and antiestrogenic properties of the compounds were determined in an immature rat uterotrophic assay (4 day) that (as described previously by L. J. Black and R. L. Goode, Life Sciences, 26, 1453 (1980)). Immature Sprague-Dawley rats (female, 18 days old) were tested in groups of six. […] On day 4 the animals were sacrificed by CO2 asphyxiation and their uteri were removed and stripped of excess lipid, any fluid removed and the wet weight determined. A small section of one horn was submitted for histology and the remainder used to isolate total RNA in order to evaluate complement component 3 gene expression.

Compound	Infection Luciferase Activity, 1 uM + 17β estradiol (estrogen receptor) [%]	Infection Luciferase Activity, 1 uM (estrogen receptor) [%]	Uterine wt mg 100 uG cmpd + 1uG 17β-estradiol [1] [mg]	Uterine wt mg 100 uG cmpd [1] [mg]
Cc1c(-c2ccc(O)cc2)n(Cc2ccc(OCCN3CCCC(C)C3)cc2)c2ccc(O)cc12 (stereo not shown) [No. 109, 2-(4-Hydroxy-phenyl)-3-methyl-1-{4-[2-(3-methyl-piperidin-1-yl)-ethoxy]-benzyl}-1H-indol-5-ol]	5	6	–	–
Cc1c(-c2ccc(O)cc2)n(Cc2ccc(OCCN3CCC(O)CC3)cc2)c2ccc(O)cc12 [No. 113, 2-(4-Hydroxy-phenyl)-1-{4-[2-(4-hydroxy-piperidin-1-yl)-ethoxy]-benzyl}-3-methyl-1H-indol-5-ol]	16	14	–	–
Cc1c(-c2cccc(O)c2)n(Cc2ccc(OCCN3CCCCC3)cc2)c2ccc(O)cc12 [No. 127, 2-(3-Hydroxy-phenyl)-3-methyl-1-[4-(2-piperidin-1-yl-ethoxy)-benzyl]-1H-indol-5-ol]	−4	−3	–	–
CCN(CC)CCOc1ccc(Cn2c(-c3ccc(O)cc3)c(C)c3cc(O)ccc32)cc1 [No. 101, 2-(4-Hydroxy-phenyl)-3-methyl-1-[4-(2-diethyl-1-yl-ethoxy)-benzyl]-1H-indol-5-ol]	–	–	71.0	65.1
Cc1c(-c2ccc(O)cc2)n(Cc2ccc(OCCN(C(C)C)C(C)C)cc2)c2ccc(O)cc12 [No. 104, 1-[4-(2-Diisopropylamino-ethoxy)-benzyl]-2-(4-hydroxy-phenyl)-3-methyl-1H-indol-5-ol]	7	7	–	–
Cc1c(-c2ccc(O)cc2)n(Cc2ccc(OCCN(C)C)cc2)c2ccc(O)cc12 [No. 100, 2-(4-Hydroxy-phenyl)-3-methyl-1-[4-(2-dimethyl-1-yl-ethoxy)-benzyl]-1H-indol-5-ol]	–	–	68.7	59.9
Cc1c(-c2ccc(O)cc2)n(Cc2ccc(OCCCN3CCCCC3)cc2)c2ccc(O)cc12 [No. 166, 2-(4-Hydroxy-phenyl)-3-methyl-1-{4-[3-(piperidin-1-yl)-propoxy]-benzyl}-1H-indol-5-ol]	23	25	–	–
Oc1ccc(-c2c(Cl)c3cc(O)ccc3n2Cc2ccc(OCCN3CCCC3)cc2)cc1 [No. 133, 3-Chloro-2-(4-hydroxy-phenyl)-1-[4-(2-pyrrolidin-1-yl-ethoxy)-benzyl]-1H-indol-5-ol]	9	7	–	–
COc1cc(Cn2c(-c3ccc(O)cc3)c(C)c3cc(O)ccc32)ccc1OCCN1CCCCCC1 [No. 168, 2-(4-Hydroxy-phenyl)-1-[3-methoxy-4-(2-azepan-1-yl-ethoxy)-benzyl]-3-methyl-1H-indol-5-ol]	–	–	81.7	43.2
Cc1c(-c2ccc(O)cc2)n(Cc2ccc(OCCN3CCCC(C)(C)C3)cc2)c2ccc(O)cc12 [No. 111, 1-{4-[2-(3,3-Dimethyl-piperidin-1-yl)-ethoxy]-benzyl}2-(4-hydroxy-phenyl)-3-methyl-1H-indol-5-ol]	23	25	–	–
CCc1c(-c2ccc(O)cc2)n(Cc2ccc(OCCN3CCCCC3)cc2)c2ccc(O)cc12 [No. 137, 2-(4-Hydroxy-phenyl)-3-ethyl-1-[4-(2-piperidin-1-yl-ethoxy)-benzyl]-1H-indol-5-ol]	8	6	–	–
CCCCN(CCCC)CCOc1ccc(Cn2c(-c3ccc(O)cc3)c(C)c3cc(O)ccc32)cc1 [No. 103, 1-[4-(2-Dibutylamino-ethoxy)-benzyl]-2-(4-hydroxy-phenyl)-3-methyl-1H-indol-5-ol]	10	13	–	–
CCCCN(C)CCOc1ccc(Cn2c(-c3ccc(O)cc3)c(C)c3cc(O)ccc32)cc1 [No. 105, 1-{4-[2-(Butyl-methyl-amino)-ethoxy]-benzyl}-2-(4-hydroxy-phenyl)-3-methyl-1H-indol-5-ol]	5	5	–	–
N#Cc1c(-c2ccc(O)cc2)n(Cc2ccc(OCCN3CCCCCC3)cc2)c2ccc(O)cc12 [No. 139, 1-[4-(2-Azepan-1-yl-ethoxy)-benzyl]-5-hydroxy-2-(4-hydroxy-phenyl)-1H-indole-3-carbonitrile]	–	–	45.0	30.4
Cc1c(-c2ccc(O)cc2)n(Cc2ccc(OCCN3CCCCC3)cc2)c2ccc(O)cc12 [No. 97, 2-(4-Hydroxy-phenyl)-3-methyl-1-[4-(2-piperidin-1-yl-ethoxy)-benzyl]-1H-indol-5-ol]	–	–	24.3	27.4
Cc1c(-c2ccc(O)cc2)n(Cc2ccc(OCCN3C[C@@H]4CC[C@H]3C4)cc2)c2ccc(O)cc12 [No. 114, (1S,4R)-1-{4-[2-(2-Aza-bicyclo[2.2.1]hept-2-yl)-ethoxy]-benzyl}-2-(4-hydroxy-phenyl)-3-methyl-1H-indol-5-ol]	−1	1	–	–
Cc1c(-c2ccc(O)cc2)n(Cc2ccc(OCCN3CCCCC3)cc2)c2ccc(F)cc12 [No. 94, 4-{5-Fluoro-3-methyl-1-[4-(2-piperidin-1-yl-ethoxy)-benzyl]-1H-indol-2-yl}-phenol]	–	–	93.7	28.1
Cc1c(-c2ccccc2)n(Cc2ccc(OCCN3CCCCCC3)cc2)c2ccc(O)cc12 [No. 95, 1-[4-(2-Azepan-1-yl-ethoxy)-benzyl]-3-methyl-2-phenyl-1H-indol-5-ol]	−4	−4	–	–
Cc1c(-c2ccc(O)cc2)n(Cc2ccc(OCCN3CCC(C)CC3)cc2)c2ccc(O)cc12 [No. 110, 2-(4-Hydroxy-phenyl)-3-methyl-1-{4-[2-(4-methyl-piperidin-1-yl)-ethoxy]-benzyl}-1H-indol-5-ol]	10	8	–	–
Cc1c(-c2ccc(O)cc2)n(Cc2ccc(OCCN3CCCCC3C)cc2)c2ccc(O)cc12 (stereo not shown) [No. 108, 2-(4-Hydroxy-phenyl)-3-methyl-1-{4-[2-(2-methyl-piperidin-1-yl)-ethoxy]-benzyl}-1H-indol-5-ol]	10	11	–	–
Cc1c(-c2ccccc2)n(Cc2ccc(OCCN3CCCCC3)cc2)c2ccc(O)cc12 [No. 87, 3-Methyl-2-phenyl-1-[4-(2-piperidine-1-yl-ethoxy)-benzyl]-1H-indol-5-ol]	0	0	–	–
Cc1c(-c2ccc(O)cc2)n(Cc2ccc(OCCN3CCCC3)cc2)c2ccc(O)cc12 [No. 96, 2-(4-Hydroxy-phenyl)-3-methyl-1-[4-(2-pyrollidin-1-yl-ethoxy)-benzyl]-1H-indol-5-ol]	8	12	–	–
Cc1c(-c2ccc(O)cc2)n(Cc2ccc(OCCN3CC4(C)CC3CC(C)(C)C4)cc2)c2ccc(O)cc12 (stereo not shown) [No. 115, 2-(4-Hydroxy-phenyl)-3-methyl-1-{4-[2-(1,3,3-trimethyl-6-aza-bicyclo[3.2.1]oct-6-yl)-ethoxy]-benzyl}-1H-indol-5-ol]	10	11	–	–
CC/C(=C(\c1ccccc1)c1ccc(OCCN(C)C)cc1)c1ccccc1 [tamoxifen]	–	–	–	71.4
CCCN(CCC)CCOc1ccc(Cn2c(-c3ccc(O)cc3)c(C)c3cc(O)ccc32)cc1 [No. 102, 1-[4-(2-Dipropylamino-ethoxy)-benzyl]-2-(4-hydroxy-phenyl)-3-methyl-1H-indol-5-ol]	10	9	–	–
